Source: patent US11066414B2, “Cot modulators and methods of use thereof” (Gilead Sciences, Inc., priority 2015, dated 2021)

Key:
TNFα = test: Cot Monocyte TNFα Cell Based Assay; conditions: Homo sapiens, Monocyte, read-out: EC50 TNF, LPS-stimulated human monocytes, TNFα
Human Cot = Human Cot (Homo sapiens (Human), UniProt P41279); test: High Throughput Cot Biochemical Assay; conditions: IC50 HTRF, Cot HTRF (TR-FRET) biochemical assay
Human Cot, sequence (P41279 30-397): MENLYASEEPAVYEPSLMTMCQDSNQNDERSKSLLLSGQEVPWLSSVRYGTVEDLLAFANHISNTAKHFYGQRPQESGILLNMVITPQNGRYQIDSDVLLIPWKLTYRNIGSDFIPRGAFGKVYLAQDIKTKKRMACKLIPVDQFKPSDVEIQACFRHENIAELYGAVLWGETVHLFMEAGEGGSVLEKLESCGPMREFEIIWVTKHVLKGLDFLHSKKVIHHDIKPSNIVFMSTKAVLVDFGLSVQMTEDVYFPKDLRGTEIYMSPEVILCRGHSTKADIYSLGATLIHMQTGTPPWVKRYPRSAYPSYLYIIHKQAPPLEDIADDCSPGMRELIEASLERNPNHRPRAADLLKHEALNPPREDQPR

SMILES | EC50 (TNFα) [nM] | IC50 (Human Cot) [nM]
[2H][C@](Nc1cc(Cl)c2ncc(C#N)c(N[C@H](CC)c3ccccc3)c2c1)(c1ccc(F)nc1)c1c[nH]nn1 [Example 134, 8-chloro-6-(((S)-(6-fluoropyridin-3-yl)(1H-1,2,3-triazol-4-yl)methyl-d)amino)-4-(((R)-1-phenylpropyl)amino)quinoline-3-carbonitrile] | 197 | 6
[2H][C@](Nc1cc(Cl)c2ncc(C#N)c(Nc3cnc(F)c(F)c3)c2c1)(c1ccc(F)nc1)c1cn(C2CC2)nn1 [Example 140, (S)-8-chloro-6-(((1-cyclopropyl-1H-1,2,3-triazol-4-yl)(6-fluoropyridin-3-yl)methyl-d)amino)-4-((5,6-difluoropyridin-3-yl)amino)quinoline-3-carbonitrile] | 183 | 3
[2H][C@](Nc1cc(Cl)c2ncc(C#N)c(Nc3cnc(F)c(F)c3)c2c1)(c1cncc(C#N)c1)c1cn(C2CC2)nn1 [Example 143, (S)-8-chloro-6-(((5-cyanopyridin-3-yl)(1-cyclopropyl-1H-1,2,3-triazol-4-yl)methyl-d)amino)-4-((5,6-difluoropyridin-3-yl)amino)quinoline-3-carbonitrile] | 898 | 16
N#Cc1cnc2c(Cl)cc(N[C@@H](c3cncc(Cl)c3)c3cn(C4CC4)nn3)cc2c1Nc1cnc(F)c(F)c1 [Example 146, (S)-8-chloro-6-(((5-chloropyridin-3-yl)(1-cyclopropyl-1H-1,2,3-triazol-4-yl)methyl)amino)-4-((5,6-difluoropyridin-3-yl)amino)-quinoline-3-carbonitrile] | 370 | 10
N#Cc1cnc2c(Cl)cc(N[C@H](c3cn(C4CC4)nn3)c3ccc(F)nc3F)cc2c1Nc1cnc(F)c(F)c1 [Example 149, (S)-8-chloro-6-(((1-cyclopropyl-1H-1,2,3-triazol-4-yl)(2,6-difluoropyridin-3-yl)methyl)amino)-4-((5,6-difluoropyridin-3-yl)amino)quinoline-3-carbonitrile] | 381 | 8
N#Cc1cnc2c(Cl)cc(N[C@H](c3c[nH]nn3)c3cccnc3F)cc2c1Nc1cnc(F)c(F)c1 [Example 151, (S)-8-chloro-4-((5,6-difluoropyridin-3-yl)amino)-6-(((2-fluoropyridin-3-yl)(1H-1,2,3-triazol-4-yl)methyl)amino)quinoline-3-carbonitrile] | 1300 | 8
N#Cc1cnc2c(Cl)cc(N[C@@H](c3cncc(Cl)c3)c3c[nH]nn3)cc2c1Nc1cnc(F)c(F)c1 [Example 152, (S)-8-chloro-6-(((5-chloropyridin-3-yl)(1H-1,2,3-triazol-4-yl)methyl)amino)-4-((5,6-difluoropyridin-3-yl)amino)quinoline-3-carbonitrile] | 904 | 10
N#Cc1cnc2c(Cl)cc(N[C@H](c3c[nH]nn3)c3cnccc3Cl)cc2c1Nc1cnc(F)c(F)c1 [Example 153, (S)-8-chloro-6-(((4-chloropyridin-3-yl)(1H-1,2,3-triazol-4-yl)methyl)amino)-4-((5,6-difluoropyridin-3-yl)amino)quinoline-3-carbonitrile] | 3760 | 44
N#Cc1cnc2c(Cl)cc(N[C@H](c3c[nH]nn3)c3ccc(F)nc3F)cc2c1Nc1cnc(F)c(F)c1 [Example 154, (S)-8-chloro-6-(((2,6-difluoropyridin-3-yl)(1H-1,2,3-triazol-4-yl)methyl)amino)-4-((5,6-difluoropyridin-3-yl)amino)quinoline-3-carbonitrile] | 1670 | 26
N#Cc1cnc2c(Cl)cc(N[C@@H](c3cccnc3)c3cn(-c4ccccc4)nn3)cc2c1Nc1cnc(F)c(F)c1 [Example 160, (S)-8-chloro-4-((5,6-difluoropyridin-3-yl)amino)-6-(((1-phenyl-1H-1,2,3-triazol-4-yl)(pyridin-3-yl)methyl)amino)quinoline-3-carbonitrile] | 484 | 11
[2H][C@](Nc1cc(Cl)c2ncc(C#N)c(Nc3cnc(F)c(F)c3)c2c1)(c1cccnc1)c1cn(-c2ccccc2)nn1 [Example 162, (S)-8-chloro-4-((5,6-difluoropyridin-3-yl)amino)-6-(((1-phenyl-1H-1,2,3-triazol-4-yl)(pyridin-3-yl)methyl-d)amino)quinoline-3-carbonitrile] | 429 | 7
[2H][C@](Nc1cc(Cl)c2ncc(C#N)c(Nc3cnc(F)c(F)c3)c2c1)(c1cccnc1)c1c[nH]nn1 [Example 164, (S)-8-chloro-4-((5,6-difluoropyridin-3-yl)amino)-6-((pyridin-3-yl(1H-1,2,3-triazol-4-yl)methyl-d)amino)quinoline-3-carbonitrile] | 1800 | 5
Cn1nccc1[C@H](Nc1cc(Cl)c2ncc(C#N)c(Nc3cnc(F)c(F)c3)c2c1)c1c[nH]nn1 [Example 165, (S)-8-chloro-4-((5,6-difluoropyridin-3-yl)amino)-6-(((1-methyl-1H-pyrazol-5-yl)(1H-1,2,3-triazol-4-yl)methyl)amino)quinoline-3-carbonitrile] | 2370 | 9
N#Cc1cnc2c(Cl)cc(N[C@@H](c3ccc(F)nc3)c3c[nH]nn3)cc2c1Nc1cnc(F)c(F)c1 [Example 166, (S)-8-chloro-4-((5,6-difluoropyridin-3-yl)amino)-6-(((6-fluoropyridin-3-yl)(1H-1,2,3-triazol-4-yl)methyl)amino)quinoline-3-carbonitrile] | 1420 | 6
CC(C)(C)CNc1c(C#N)cnc2c(Cl)cc(N[C@@H](c3cccnc3)c3c[nH]nn3)cc12 [Example 167, (S)-8-chloro-4-(neopentylamino)-6-((pyridin-3-yl(1H-1,2,3-triazol-4-yl)methyl)amino)quinoline-3-carbonitrile] | 506 | 4
CC(C)(C)CNc1c(C#N)cnc2c(Cl)cc(N[C@@H](c3cccnc3)c3cn(C4COC4)nn3)cc12 [Example 168, (S)-8-chloro-4-(neopentylamino)-6-(((1-(oxetan-3-yl)-1H-1,2,3-triazol-4-yl)(pyridin-3-yl)methyl)amino)quinoline-3-carbonitrile] | 394 | 6
Cc1ncccc1[C@H](Nc1cc(Cl)c2ncc(C#N)c(N[C@H](C)c3ccccc3)c2c1)c1cn(C2COC2)nn1 [Example 171, 8-chloro-6-(((S)-(2-methylpyridin-3-yl)(1-(oxetan-3-yl)-1H-1,2,3-triazol-4-yl)methyl)amino)-4-(((R)-1-phenylethyl)amino)quinoline-3-carbonitrile] | 320 | 10

Now those with a lower EC50 (TNFα), led by results:

EC50 (TNFα) [nM] | IC50 (Human Cot) [nM] | SMILES
141 | 3 | [2H][C@](Nc1cc(Cl)c2ncc(C#N)c(NCC(C)(C)C)c2c1)(c1cccnc1)c1cn(-c2cccnc2)nn1 [Example 138, (S)-8-chloro-4-(neopentylamino)-6-((pyridin-3-yl(1-(pyridin-3-yl)-1H-1,2,3-triazol-4-yl)methyl-d)amino)quinoline-3-carbonitrile]
92 | 2 | [2H][C@](Nc1cc(Cl)c2ncc(C#N)c(Nc3cnc(F)c(Cl)c3)c2c1)(c1ccc(F)nc1)c1cn(C2CC2)nn1 [Example 139, (S)-8-chloro-4-((5-chloro-6-fluoropyridin-3-yl)amino)-6-(((1-cyclopropyl-1H-1,2,3-triazol-4-yl)(6-fluoropyridin-3-yl)methyl-d)amino)quinoline-3-carbonitrile]
121 | 2 | [2H][C@](Nc1cc(Cl)c2ncc(C#N)c(NCC(C)(C)C)c2c1)(c1cccnc1)c1cn(C2CC2)nn1 [Example 141, (S)-8-chloro-6-(((1-cyclopropyl-1H-1,2,3-triazol-4-yl)(pyridin-3-yl)methyl-d)amino)-4-(neopentylamino)quinoline-3-carbonitrile]
66 | 2 | [2H][C@](Nc1cc(Cl)c2ncc(C#N)c(NCC(C)(C)C)c2c1)(c1ccc(F)nc1)c1cn(C2CC2)nn1 [Example 142, (S)-8-chloro-6-(((1-cyclopropyl-1H-1,2,3-triazol-4-yl)(6-fluoropyridin-3-yl)methyl-d)amino)-4-(neopentylamino)quinoline-3-carbonitrile]
154 | 4 | Cc1ncccc1[C@H](Nc1cc(Cl)c2ncc(C#N)c(Nc3cnc(F)c(F)c3)c2c1)c1cn(C2CC2)nn1 [Example 150, (S)-8-chloro-6-(((1-cyclopropyl-1H-1,2,3-triazol-4-yl)(2-methylpyridin-3-yl)methyl)amino)-4-((5,6-difluoropyridin-3-yl)amino)quinoline-3-carbonitrile]
79 | 2 | [2H][C@](Nc1cc(Cl)c2ncc(C#N)c(N[C@H](CC)c3ccccc3)c2c1)(c1ccc(F)nc1)c1cn(C2CC2)nn1 [Example 155, 8-chloro-6-(((S)-(1-cyclopropyl-1H-1,2,3-triazol-4-yl)(6-fluoropyridin-3-yl)methyl-d)amino)-4-(((R)-1-phenylpropyl)amino)quinoline-3-carbonitrile]
127 | 5 | CC(C)n1cc([C@@H](Nc2cc(Cl)c3ncc(C#N)c(Nc4ccc(F)c(Cl)c4)c3c2)c2cccn3nccc23)nn1 [Example 157, (S)-8-chloro-4-((3-chloro-4-fluorophenyl)amino)-6-(((1-isopropyl-1H-1,2,3-triazol-4-yl)(pyrazolo[1,5-a]pyridin-4-yl)methyl)amino)-quinoline-3-carbonitrile]
95 | 2 | [2H][C@](Nc1cc(Cl)c2ncc(C#N)c(N[C@H](CC)c3ccccc3)c2c1)(c1cccnc1)c1cn(C2CC2)nn1 [Example 159, 8-chloro-6-(((S)-(1-cyclopropyl-1H-1,2,3-triazol-4-yl)(pyridin-3-yl)methyl-d)amino)-4-(((R)-1-phenylpropyl)amino)quinoline-3-carbonitrile]
